Consider five molecules from patent US11000033B2, “Ketone or oxime compound, and herbicide” (NISSAN CHEMICAL CORPORATION, priority 2014, dated 2021).

Holding throughout (type): in vivo
The subject of one series is Scirpus juncoides. Description: Test Example 1: herbicidal activity, application before weed generation in submerged conditions (symbol B). To be noted: application herbicide amount 320 g/ha. The procedure, abridged:
(§1)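 Weed control was rated three weeks after treatment on a 0–5 scale, from 5% or lower up to 90% or more. Pre-emergence water-surface application of diluted emulsion at a predetermined rate was made on the day of sowing, in flooded (4 cm water) pots containing rice seedlings, kept at 25–30 °C under glass.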

The next series concerns Monochoria vaginalis. As to the kind of experiment: Test Example 1: herbicidal activity, application before weed generation in submerged conditions (symbol C). To be noted: application herbicide amount 320 g/ha. The procedure, abridged: as §1
Another series has as its system Cyperus difformis. As to the kind of experiment: Test Example 3: herbicidal effect by foliage application, Wagner pot (symbol E). To be noted: application herbicide amount 320 g/ha, Table 24. The procedure, abridged:
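Steps: fill pot with alluvial soil; add water to 0.1–0.5 cm depth; sow weed and rice seed; grow 14 days at 25–30 °C; spray diluted emulsion over the leaves; rate effect after 3 weeks.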

The next series has as its system Amaranthus retroflexus. Description: Test Example 4: herbicidal effect by soil treatment (symbol N). As to conditions: application herbicide amount 320 g/ha. The procedure, abridged: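 Seeds were sown in sterilized diluvial soil, covered with about 1.5 cm of soil, and the soil surface was sprayed with a water-diluted emulsion of the compound at a predetermined rate. Plants grew in a greenhouse at 25° C. to 30° C.; effects were scored visually 3 weeks after application.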

The subject of a further series is corn. As to the kind of experiment: Test Example 4: effect on crop by soil treatment (symbol c). As to conditions: application herbicide amount 320 g/ha. A digest of the protocol:
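Soil-treatment setup: crop and weed seeds were spot-sown into sterilized diluvial soil, then buried beneath approximately 1.5 cm of it, and the boxes were housed in a 25–30° C. greenhouse.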

Series [1] deals with beet. Description: Test Example 4: effect on crop by soil treatment (symbol f). To be noted: application herbicide amount 320 g/ha. The procedure, abridged: (§2)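 Plants are raised in a greenhouse (25° C. to 30° C.) from spot-sown seed, which sits under about 1.5 cm of sterilized diluvial soil in a box shared with weed species.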
Series [2] concerns rapeseed. Description: Test Example 4: effect on crop by soil treatment (symbol g). To be noted: application herbicide amount 320 g/ha. The procedure, abridged: as §2
For another series, the system named is Setaria viridis. As to the kind of experiment: Test Example 5: herbicidal effect by foliage application, plastic box (symbol G). As to conditions: 320 g/ha, 3 weeks after application. The procedure, abridged:
(§3)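 Greenhouse foliar test: seedlings at 14 days, grown 25° C. to 30° C. in sterilized diluvial soil; compound applied as an aqueous dilution of an emulsion; response read 3 weeks after spraying.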

A further series deals with Lolium multiflorum Lam. As to the kind of experiment: Test Example 5: herbicidal effect by foliage application, plastic box (symbol K). To be noted: 320 g/ha, 3 weeks after application. A digest of the protocol:
as §3

Another series has as its system Apera spica-venti. Description: Test Example 5: herbicidal effect by foliage application, plastic box (symbol L). As to conditions: 320 g/ha, 3 weeks after application. The procedure, abridged: as §3
A further series has as its system Galium spurium. Description: Test Example 5: herbicidal effect by foliage application, plastic box (symbol Q). To be noted: 320 g/ha, 3 weeks after application. The procedure, abridged:
as §3

For the next series, the system named is wheat. Description: Test Example 5: effect on crop by foliage application, plastic box (symbol e). As to conditions: 320 g/ha, 3 weeks after application. The procedure, abridged: (§4)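 In a plastic box 7 cm deep filled with sterilized diluvial soil, seeds of crops and weeds such as Digitaria ciliaris, Avena fatua and Amaranthus retroflexus are sown in spots and covered with about 1.5 cm of soil before greenhouse growth at 25–30° C.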

For series [3], the system named is beet. Description: Test Example 5: effect on crop by foliage application, plastic box (symbol f). As to conditions: 320 g/ha, 3 weeks after application. The procedure, abridged:
as §4

Series [4] concerns rapeseed. As to the kind of experiment: Test Example 5: effect on crop by foliage application, plastic box (symbol g). To be noted: 320 g/ha, 3 weeks after application. The procedure, abridged: as §4

For `CCC(CC1CC(O)=C(c2c(C)cc(-c3ccccc3)cc2OC)C1=O)=NOC` (mixture of isomers) [13-004], the “B (Scirpus juncoides) herbicidal effect grade” value in the series on Scirpus juncoides is reported as 5 (Herbicidal ratio of 90% or more (almost completely withered)). Also, the “C (Monochoria vaginalis) herbicidal effect grade” value in the series with Monochoria vaginalis is given as 5 (Herbicidal ratio of 90% or more (almost completely withered)). For the same molecule, the “E herbicidal effect grade” value with Cyperus difformis is listed as 5 (Herbicidal ratio of 90% or more (almost completely withered)). Further, in the series with Amaranthus retroflexus, the “N: Amaranthus retroflexus, herbicidal effect grade” value is 4 (Herbicidal ratio of 70% or higher and lower than 90%). Also, the “c: corn, effect on crop grade” value in the series with corn is given as 5 (Herbicidal ratio of 90% or more (almost completely withered)). Moreover, the “f: beet, effect on crop grade” value with beet [1] and in the series on beet [3] was 0 (Herbicidal ratio of 5% or lower (almost no effect)) in each case. Further, the “g: rapeseed, effect on crop grade” value was 4 (Herbicidal ratio of 70% or higher and lower than 90%) with rapeseed [2]; 4 (Herbicidal ratio of 70% or higher and lower than 90%) with rapeseed [4]. Moreover, the “G: Setaria viridis, herbicidal effect grade” value (shortened to “G: Setaria viridis”) in the series on Setaria viridis is recorded as 5 (Herbicidal ratio of 90% or more (almost completely withered)). Moreover, in the series with Lolium multiflorum Lam., the “K: Lolium multiflorum Lam., herbicidal effect grade” value is on record as 5 (Herbicidal ratio of 90% or more (almost completely withered)). For the same molecule, in the series on Apera spica-venti, the “L: Apera spica-venti, herbicidal effect grade” value (from here on “L: Apera spica-venti”) is listed as 5 (Herbicidal ratio of 90% or more (almost completely withered)). Besides, the “Q: Galium spurium, herbicidal effect grade” value (shortened to “Q: Galium spurium”) in the series on Galium spurium was 4 (Herbicidal ratio of 70% or higher and lower than 90%). For the same molecule, the “e: wheat, effect on crop grade” value in the series on wheat is recorded as 5 (Herbicidal ratio of 90% or more (almost completely withered)).

As to `CON=C(CC1CC(OC(=O)N2CCOCC2)=C(c2c(C)cc(C)cc2OC)C1=O)C1CC1` (mixture of isomers) [13-005], the “B (Scirpus juncoides) herbicidal effect grade” value in the series on Scirpus juncoides is recorded as 0 (Herbicidal ratio of 5% or lower (almost no effect)). In the series with Monochoria vaginalis, the “C (Monochoria vaginalis) herbicidal effect grade” value is 2 (Herbicidal ratio of 20% or higher and lower than 40%). Moreover, the “E herbicidal effect grade” value in the series on Cyperus difformis was 5 (Herbicidal ratio of 90% or more (almost completely withered)). For the same molecule, the “N: Amaranthus retroflexus, herbicidal effect grade” value in the series with Amaranthus retroflexus is on record as 0 (Herbicidal ratio of 5% or lower (almost no effect)). The “c: corn, effect on crop grade” value in the series with corn is reported as 0 (Herbicidal ratio of 5% or lower (almost no effect)). The “f: beet, effect on crop grade” value with beet [1] and with beet [3] was 0 (Herbicidal ratio of 5% or lower (almost no effect)) each time. The “g: rapeseed, effect on crop grade” value is 0 (Herbicidal ratio of 5% or lower (almost no effect)) with rapeseed [2]; 3 (Herbicidal ratio of 40% or higher and lower than 70%) in the series on rapeseed [4]. Moreover, the “G: Setaria viridis” value in the series on Setaria viridis is 5 (Herbicidal ratio of 90% or more (almost completely withered)). The “K: Lolium multiflorum Lam., herbicidal effect grade” value in the series on Lolium multiflorum Lam. is reported as 5 (Herbicidal ratio of 90% or more (almost completely withered)). Besides, the “L: Apera spica-venti” value in the series on Apera spica-venti is on record as 5 (Herbicidal ratio of 90% or more (almost completely withered)). Moreover, the “Q: Galium spurium” value in the series on Galium spurium was 0 (Herbicidal ratio of 5% or lower (almost no effect)). The “e: wheat, effect on crop grade” value in the series with wheat is 5 (Herbicidal ratio of 90% or more (almost completely withered)).

On to `Cc1cc(Br)cc(C)c1C1=C(O)CC(CC(=O)C(C)C)C1=O` (racemic) [10-003], for which the “B (Scirpus juncoides) herbicidal effect grade” value in the series on Scirpus juncoides is reported as 0 (Herbicidal ratio of 5% or lower (almost no effect)). For the same molecule, the “C (Monochoria vaginalis) herbicidal effect grade” value in the series on Monochoria vaginalis is given as 0 (Herbicidal ratio of 5% or lower (almost no effect)). Moreover, in the series with Cyperus difformis, the “E herbicidal effect grade” value is reported as 0 (Herbicidal ratio of 5% or lower (almost no effect)). In the series on Amaranthus retroflexus, the “Herbicidal effect grade, N: Amaranthus retroflexus” value was 0 (Herbicidal ratio of 5% or lower (almost no effect)). Besides, the “Effect on crop grade, c: corn” value in the series on corn is on record as 0 (Herbicidal ratio of 5% or lower (almost no effect)). Besides, the “Effect on crop grade, f: beet” value with beet [1] is recorded as 0 (Herbicidal ratio of 5% or lower (almost no effect)). The “Effect on crop grade, g: rapeseed” value in the series with rapeseed [2] was 0 (Herbicidal ratio of 5% or lower (almost no effect)). Moreover, in the series on Setaria viridis, the “G: Setaria viridis” value is on record as 5 (Herbicidal ratio of 90% or more (almost completely withered)). In addition, the “K: Lolium multiflorum Lam., herbicidal effect grade” value in the series with Lolium multiflorum Lam. is 4 (Herbicidal ratio of 70% or higher and lower than 90%). Further, in the series on Apera spica-venti, the “L: Apera spica-venti” value was 3 (Herbicidal ratio of 40% or higher and lower than 70%). Further, the “Q: Galium spurium” value with Galium spurium is recorded as 0 (Herbicidal ratio of 5% or lower (almost no effect)). Besides, in the series on wheat, the “e: wheat, effect on crop grade” value is 0 (Herbicidal ratio of 5% or lower (almost no effect)). Further, the “f: beet, effect on crop grade” value in the series on beet [3] is recorded as 0 (Herbicidal ratio of 5% or lower (almost no effect)). Also, the “g: rapeseed, effect on crop grade” value with rapeseed [4] was 0 (Herbicidal ratio of 5% or lower (almost no effect)).

In the case of `COc1cc(Br)cc(C)c1C1=C(O)CC(CC(=O)C2CC2)C1=O` (racemic) [14-001], the “B (Scirpus juncoides) herbicidal effect grade” value with Scirpus juncoides was 3 (Herbicidal ratio of 40% or higher and lower than 70%). For the same molecule, the “C (Monochoria vaginalis) herbicidal effect grade” value with Monochoria vaginalis was 3 (Herbicidal ratio of 40% or higher and lower than 70%). Moreover, the “E herbicidal effect grade” value with Cyperus difformis is given as 5 (Herbicidal ratio of 90% or more (almost completely withered)). Also, the “N: Amaranthus retroflexus, herbicidal effect grade” value with Amaranthus retroflexus was 0 (Herbicidal ratio of 5% or lower (almost no effect)). In addition, in the series with corn, the “c: corn, effect on crop grade” value is on record as 5 (Herbicidal ratio of 90% or more (almost completely withered)). Moreover, the “f: beet, effect on crop grade” value in the series on beet [1] and in the series on beet [3] was 0 (Herbicidal ratio of 5% or lower (almost no effect)) each time. Besides, the “g: rapeseed, effect on crop grade” value was 0 (Herbicidal ratio of 5% or lower (almost no effect)) in the series on rapeseed [2]; 4 (Herbicidal ratio of 70% or higher and lower than 90%) with rapeseed [4]. Further, the “G: Setaria viridis” value in the series on Setaria viridis was 5 (Herbicidal ratio of 90% or more (almost completely withered)). In addition, the “K: Lolium multiflorum Lam., herbicidal effect grade” value with Lolium multiflorum Lam. is reported as 5 (Herbicidal ratio of 90% or more (almost completely withered)). Besides, in the series on Apera spica-venti, the “L: Apera spica-venti” value is 5 (Herbicidal ratio of 90% or more (almost completely withered)). Besides, in the series with Galium spurium, the “Q: Galium spurium” value was 0 (Herbicidal ratio of 5% or lower (almost no effect)). Moreover, the “e: wheat, effect on crop grade” value with wheat was 4 (Herbicidal ratio of 70% or higher and lower than 90%).

Turning to `CCC(=O)CC1CC(O)=C(c2c(C)cc(Br)cc2OC)C1=O` (racemic) [14-002], in the series on Scirpus juncoides, the “B (Scirpus juncoides) herbicidal effect grade” value was 1 (Herbicidal ratio of 5% or higher and lower than 20%). Further, in the series with Monochoria vaginalis, the “C (Monochoria vaginalis) herbicidal effect grade” value was 2 (Herbicidal ratio of 20% or higher and lower than 40%). For the same molecule, the “E herbicidal effect grade” value in the series on Cyperus difformis is 5 (Herbicidal ratio of 90% or more (almost completely withered)). The “N: Amaranthus retroflexus, herbicidal effect grade” value with Amaranthus retroflexus is on record as 0 (Herbicidal ratio of 5% or lower (almost no effect)). Besides, the “c: corn, effect on crop grade” value with corn was 1 (Herbicidal ratio of 5% or higher and lower than 20%). In addition, the “f: beet, effect on crop grade” value with beet [1] and in the series on beet [3] was 0 (Herbicidal ratio of 5% or lower (almost no effect)) throughout. Besides, the “g: rapeseed, effect on crop grade” value with rapeseed [2] was 0 (Herbicidal ratio of 5% or lower (almost no effect)); in the series with rapeseed [4], 4 (Herbicidal ratio of 70% or higher and lower than 90%). Further, the “G: Setaria viridis” value in the series with Setaria viridis was 5 (Herbicidal ratio of 90% or more (almost completely withered)). For the same molecule, the “K: Lolium multiflorum Lam., herbicidal effect grade” value with Lolium multiflorum Lam. is 5 (Herbicidal ratio of 90% or more (almost completely withered)). The “L: Apera spica-venti” value in the series on Apera spica-venti is on record as 5 (Herbicidal ratio of 90% or more (almost completely withered)). The “Q: Galium spurium” value with Galium spurium is reported as 0 (Herbicidal ratio of 5% or lower (almost no effect)). The “e: wheat, effect on crop grade” value in the series on wheat is 3 (Herbicidal ratio of 40% or higher and lower than 70%).
